Data set [1] concerns human umbilical vein endothelial cells. The data set is described as follows: Endothelial microtubule formation assay on Matrigel. Conditions: 100 μg/ml; 18 h; scale 0-4. It counts as cell-based. The protocol: The endothelial microtubule formation assay was performed by isolating human umbilical vein endothelial cells from umbilical cords within 6 h of delivery by caesarean section. The embilical vein was cannulated and 0.1% collagenase in phosphate buffered saline was introduced and incubated for 20 minutes. The endothelial cells liberated by the collagenase were obtained by washing the umbilical vein with Medium 199. The cells were washed three times with Medium 199 and then cultured in tissue culture flasks coated with fibronectin. Growth media consisted of Medium 199 with 20% foetal bovine serum, 30 μg/ml endothelial cell growth supplement, 10 IU/ml heparin, 100 IU/ml penicillin, 100 μg/1 ml streptomycin and 2 mM L-glutamine. Human umbilical vein endothelial cells were passaged at confluence after treatment with trypsin-EDTA. All cells were used at passages to 6.
Aliquots of Matrigel were dispensed into 35 mm diameter tissue culture dishes on ice and then incubated at 37° C. for 10 min to allow the gel to set. […] At various time points from 8-24 hours, the plates were examined and scored using a published scheme from 0-4, where 0=all adherent cells remain single, and 4=all adherent cells involved in tubular structures. New vessel formation was quantified blind by three different observers at 18 h. […]
Endothelial microtubule formation by HUVECs on Matrigel (×40 magnification). A visual analogue scale was used to determine the extent of tube formation and scored on a scale from 0 (all cells remain single) to 4 (all cells involved in tubular structures) as previously described (Bauer J, Margolis M, Schreiner C, Edgell C-J, Azizkhan J, Lazarowski E, & Juliano R L. (1992) In vitro model of angiogenesis using a human endothelium derived permanent cell line: contributions of induced gene expression, G-proteins and integrins. J. Cellular Physiology 153: 437-449; Liaw, L & Schwartz S M. (1993) Microtubule disruption stimulates DNA synthesis in bovine endothelial cells and potentiates cellular response to basic fibroblast growth factor. […]

Data set [2] concerns human T-cell line transformed with HTLV-1 (C8166). The data set is described as follows: Toxicity in cell lines, MTT assay. The class given is cell-based. Conditions: 67 h, ± SEM (n = 16). The protocol:
(§1) The compounds synthesised were evaluated for their toxicity in the following cell lines:—the human T-cell line (Sup-T1), a human T-cell line transformed with HTLV-1 (C8166), the human monocytic cell line (U937), the brain cell line transfected with human CD4 and the human chemokine receptor CCR5 (U87-CD4-CCR5), and the murine melanoma cell line (B16P10).
(§2) Dendrimers, glucosamine, glucosamine 6-sulfate and dendrimer conjugates were incubated with each cell line. […] The conjugates or controls were incubated for 67 h with the cells at concentrations ranging from […]. An MTT assay was then used to determine cell viability and the results were expressed as a percentage of that for cells grown in the absence of any compound.
In general terms: Formazan colour is commonly taken as a measure of viable cells.

Data set [3] deals with human monocytic cell line (U937). The data set is described as follows: Toxicity in cell lines, MTT assay. The class given is cell-based. Conditions: U-937, 67 h, ± SEM (n = 16). The protocol:
as §1, §2

Data set [4] relates to brain cell line transfected with human CD4 and the human chemokine receptor CCR5 (U87-CD4-CCR5). The data set is described as follows: Toxicity in cell lines, MTT assay. It counts as cell-based. Conditions: 67 h, ± SEM (n = 16). The protocol: as §1, §2
Data set [5] deals with human T-cell line (Sup-T1). The data set is described as follows: Toxicity in cell lines, MTT assay. The class given is cell-based. Conditions: 67 h, ± SEM (n = 16). The protocol:
as §1, §2

In data set [6] the test system is murine melanoma cell line (B16F10). The data set is described as follows: Toxicity in cell lines, MTT assay. Conditions: Mus musculus, B16-F10, 67 h, ± SEM (n = 16). It counts as cell-based. The protocol:
as §1, §2

In data set [7] the test system is Sup-T1, C8166, U937, U87-CD4-CCR5 and B16F10 cells. The data set is described as follows: Toxicity in cell lines, MTT assay, stated over all cell lines. Conditions: concentrations up to 1,000 μg/ml. The class given is cell-based, human; murine. The protocol:
as §1, §2

For data set [8], the system named is freshly isolated human PBMN cells and human MDM. The data set is described as follows: Toxicity against primary human cells in vitro, MTT assay. The class given is cell-based. Conditions: up to the maximum concentration of 1,000 μg/ml. The protocol:
The dendrimers and the dendrimer conjugates were incubated with freshly isolated, human peripheral blood mononuclear (PBMN) cells and with freshly isolated human monocyte-derived-macrophages QDM).
Human PBMN cells and human MDMs were separated from buffy coat residues within 24 h of collection by density gradient centrifugation. […] The monocytes were allowed to differentiate to MDMs by a further 3 days of adherence. The compounds were then added to PBMN cells or to MDMs (1×10^6 cells/ml) and incubated for 67 h. Cell viability was assessed using the MTT assay at 72 h.

Each structure is given as a SMILES string. A value given as a limit tells only on which side of the number the result lay.

As for `N[C@H]1C(O)O[C@H](COS(=O)(=O)O)[C@@H](O)[C@@H]1OS(=O)(=O)O` (stereo partly shown) [glucosamine 3,6-disulfate], the “Tube formation score (n = 4)” value in data set [1] is reported as 4.
With `N[C@H]1C(O)O[C@H](COS(=O)(=O)O)[C@@H](O)[C@@H]1O` (stereo partly shown) [glucosamine 6-sulfate], the IC50 in data set [2], in data set [3], in data set [4], in data set [5] and in data set [6] was above 1000 µg/mL in each case. Also, the toxicity result in data set [7] is “no toxicity”. The “toxicity to PBMN cells or to MDMs” value in data set [8] was “not toxic”. Moreover, in data set [1], the “Tube formation score (n = 4)” value came out at 4.
Turning to `N[C@H]1C(O)O[C@H](CO)[C@@H](O)[C@@H]1O` (stereo partly shown) [glucosamine], the IC50 in data set [2], in data set [3], in data set [4], in data set [5] and in data set [6] was above 1000 µg/mL each time. In addition, the toxicity entry in data set [7] is recorded as “no toxicity”. Moreover, in data set [1], the “Tube formation score (n = 4)” value amounted to 4.

(Values after US8058344B2, “Glycodendrimers having biological activity” (Imperial Innovations Ltd, priority 2002, dated 2011).)
